Experimental data taken from ChEMBL document CHEMBL1201862, “PubChem BioAssay data set” (2004).
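Cultured in 96-well plates, cells were exposed to test compound for 48 hours across five concentrations. Abbreviation: GI50, concentration required for 50% inhibition of growth.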 Active and inactive are the calls of the source. Rule as the data show it: active = GI50 up to about 1.1 µM and inactive = higher.

Columns and labels:
Test in all cases: NCI tumour cell line growth inhibition, 48 h
[1] = test system: SN12C
[2] = test system: A498
[3] = test system: NCI-H23
[4] = test system: SF-295
[5] = test system: RXF 393
[6] = test system: MDA-MB-435
[7] = test system: IGROV-1
[8] = test system: PC-3
[9] = test system: HOP-62
[10] = test system: SK-MEL-28
[11] = test system: HOP-92
[12] = test system: SK-OV-3
[13] = test system: MOLT-4
[14] = test system: U-251
[15] = test system: LOX IMVI
[16] = test system: NCI/ADR-RES
[17] = test system: TK-10
[18] = test system: RPMI-8226
[19] = test system: SF-268
[20] = test system: SR

Measured: GI50

CN(C)CCCNc1nnc(NCCCN(C)C)c2c(=O)c3sccc3[nH]c12
inactive: [1] 3.19 µM | [2] 41.4 µM | [3] 10.8 µM | [4] 13.7 µM | [5] 15 µM | [6] 8.15 µM | [7] 5.69 µM | [8] 6.01 µM | [9] 5.77 µM | [10] 28.8 µM | [11] 35.8 µM | [12] 12.9 µM | [13] 3.24 µM | [14] 22.2 µM | [15] 14 µM | [16] 8.15 µM | [17] 9.86 µM | [18] 9.02 µM | [19] 5.53 µM

Cc1cn(C2CC(n3cc(Cn4cc(F)c(=O)[nH]c4=O)nn3)C(CO)O2)c(=O)[nH]c1=O (configuration not stated)
inactive: [1] > 100 µM | [2] > 100 µM | [3] > 100 µM | [4] > 100 µM | [5] > 100 µM | [6] > 100 µM | [7] > 100 µM | [8] > 100 µM | [9] > 100 µM | [10] > 100 µM | [11] > 100 µM | [12] > 100 µM | [13] > 100 µM | [14] > 100 µM | [15] > 100 µM | [16] > 100 µM | [17] > 100 µM | [18] > 100 µM | [19] > 100 µM

OC(CCN1CCCCC1)(c1ccccc1)c1ccccc1 [PRIDINOL]
inactive: [1] > 100 µM | [2] > 100 µM | [3] > 100 µM | [4] > 100 µM | [5] > 100 µM | [6] 82.8 µM | [7] > 100 µM | [8] > 100 µM | [9] > 100 µM | [10] > 100 µM | [11] 32.4 µM | [12] > 100 µM | [13] > 100 µM | [14] > 100 µM | [15] > 100 µM | [16] > 100 µM | [17] > 100 µM | [18] 87.1 µM | [19] > 100 µM

COc1ccc(/C=C2\N=C3NC(=O)C(N4CCCCC4)=C(N)N3C2=O)cc1
inactive: [1] > 100 µM | [2] > 100 µM | [3] > 100 µM | [4] 73.6 µM | [5] > 100 µM | [6] > 100 µM | [7] > 100 µM | [10] > 100 µM | [11] > 100 µM | [20] > 100 µM | [12] > 100 µM | [13] > 100 µM | [14] 52.8 µM | [15] > 100 µM | [16] > 100 µM | [17] 47 µM | [18] > 100 µM | [19] > 100 µM

Cc1nc(O)nc2nc3cc(Cl)cc(Cl)c3c(NC(C)(CO)CO)c12
inactive: [1] > 100 µM | [2] 13.6 µM | [3] 81.8 µM | [4] 30.3 µM | [5] 27.8 µM | [6] > 100 µM | [7] 35.9 µM | [8] > 100 µM | [9] 23.5 µM | [10] > 100 µM | [11] 16.4 µM | [12] 26.8 µM | [13] > 100 µM | [14] 14.4 µM | [15] > 100 µM | [16] > 100 µM | [17] 27.4 µM | [19] 25.7 µM

COc1cc(OC)c(OC)cc1/C=C/c1nc2ccccc2s1
inactive: [1] > 100 µM | [2] 86.5 µM | [3] 86.5 µM | [4] 67 µM | [5] 23.3 µM | [6] 3.1 µM | [7] > 100 µM | [8] 5.78 µM | [9] 29.1 µM | [10] > 100 µM | [11] 6.35 µM | [12] > 100 µM | [13] 34.2 µM | [14] > 100 µM | [15] > 100 µM | [16] > 100 µM | [17] 98.2 µM | [18] 31 µM | [19] > 100 µM

CC(=O)N1c2ccccc2C23CCN4CC5=CCOC(O)C(C5CC42)C13 (configuration not stated)
inactive: [1] > 100 µM | [2] > 100 µM | [3] > 100 µM | [4] > 100 µM | [6] > 100 µM | [7] > 100 µM | [8] > 100 µM | [10] > 100 µM | [11] > 100 µM | [12] > 100 µM | [13] > 100 µM | [14] > 100 µM | [15] > 100 µM | [16] > 100 µM | [17] > 100 µM | [18] > 100 µM | [19] > 100 µM

Cn1ncc2c(NCc3ccccc3)ncnc21
inactive: [1] > 100 µM | [2] > 100 µM | [3] > 100 µM | [4] > 100 µM | [5] > 100 µM | [6] > 100 µM | [7] > 100 µM | [9] > 100 µM | [10] > 100 µM | [20] > 100 µM | [12] > 100 µM | [13] > 100 µM | [14] > 100 µM | [15] > 100 µM | [16] > 100 µM | [17] > 100 µM | [18] > 100 µM | [19] > 100 µM

COC(=O)c1cc(C)ccc1C1CN=NC12Cc1c(C)cc(C)cc1C2=O (configuration not stated)
inactive: [1] 28.6 µM | [3] 19.1 µM | [4] 23.2 µM | [5] 22.2 µM | [6] 16.3 µM | [7] 38.2 µM | [8] 27.5 µM | [9] 29 µM | [10] 51.1 µM | [11] 13.8 µM | [12] 17 µM | [13] 15.7 µM | [14] 27 µM | [15] 15.1 µM | [16] 17.7 µM | [17] 34.1 µM | [19] 20.8 µM

O=c1[nH]c(=O)n(COCCO)c2ccc(Br)cc12
inactive: [1] > 100 µM | [2] > 100 µM | [4] > 100 µM | [5] > 100 µM | [6] > 100 µM | [7] 77.1 µM | [10] > 100 µM | [11] > 100 µM | [20] 80.4 µM | [12] > 100 µM | [13] > 100 µM | [14] > 100 µM | [15] > 100 µM | [16] > 100 µM | [17] > 100 µM

COc1ccc(-n2c(=O)n(-c3ccccc3)c(=O)n2-c2ccc(OC)cc2)cc1
inactive: [1] > 100 µM | [2] > 100 µM | [3] > 100 µM | [4] > 100 µM | [5] > 100 µM | [6] > 100 µM | [7] > 100 µM | [8] > 100 µM | [9] > 100 µM | [10] > 100 µM | [11] 27.7 µM | [12] > 100 µM | [13] > 100 µM | [14] > 100 µM | [15] > 100 µM | [16] > 100 µM | [17] > 100 µM | [18] > 100 µM
